Experimental findings from the Bradley open melting point set (2014) are described below.

Several values for one entry are separate records, joined by “and”; a condition that tells them apart may be missing. Identical values can stand only once.

Broadly, the melting point is the temperature of the solid-liquid transition. `O=C(O)c1cccc([N+](=O)[O-])c1` [m-nitrobenzoic_acid] displayed a melting point of 142 °C.
For the molecule `ClCc1ccccc1` [benzyl chloride], the melting point was -43 °C.
Under `C=C1C(C[C@@H](O)C[C@@H]1O)=CC=C2/CCC[C@]3(C)[C@H](CC[C@@H]23)[C@H](C)CCCC(C)(C)O` [Calcitriol] stands 113 °C.
On to `OC[C@H]1O[C@@H](Oc2ccccc2)[C@H](O)[C@@H](O)[C@H]1O` [phenyl beta-D-galactopyranoside], for which the melting point is 154 °C.
Next, `Oc1ccc2ccccc2c1Br` [1-bromo-2-naphthol]: 75 °C; `Cc1ccc(C)c(C)c1` [1,2,4-trimethylbenzene]: -44 °C.
In the case of `CCCCCOC(C)=O` [amyl_acetate], the melting point was -100 °C.
As for `O=C(CBr)c1c(F)c(F)c(F)c(F)c1F` [2-bromo-2',3',4',5',6'-pentafluoroacetophenone], the melting point turned out to be 31 °C.
Next, `COC(=O)c1ccc2cc(Br)ccc2c1` [methyl 6-bromo-2-naphthoate]: 122 °C; `O=C(O)C(O)C(O)C(=O)O` (stereo not drawn) [Tartaric acid]: 210 °C.
Next, `COc1cc2nc(N3CCN(C(=O)c4ccco4)CC3)nc(N)c2cc1OC` [Prazosin]: 279 °C.
Next, `OB(O)c1cc(Cl)ccc1Cl` [2,5-dichlorobenzeneboronic acid]: 213 °C; `Clc1ccccc1I` [1-chloro-2-iodobenzene]: 1 °C.
In turn, `Clc1ccc(Cl)c(-c2cc(Cl)c(Cl)cc2Cl)c1` [PCB-101] registered a melting point of 77 °C.
For `CCCCCO` [1-pentanol], the melting point was -78 °C.
Next, `O=C1CCC(c2ccccc2)c2ccccc21` (stereo not drawn) [1(2H)-Naphthalenone, 3,4-dihydro-4-phenyl-]: 75 °C.
Under `CCCCNCCCC` [N-Butylbutan-1-amine] stands -60 °C; under `CCCCCCCCCCCCCCCC(C)C` [2-methylheptadecane], 6 °C; under `O=C(O)c1cc(Cl)c(O)c(Cl)c1` [3,5-dichloro-4-hydroxybenzoic acid], 268 °C.
Under `O=C(c1ccccc1)c1ccccn1` [2-benzoylpyridine] stands 43 °C.
Regarding `Cc1cc(C)c(Br)c(C)c1` [2-bromomesitylene], the melting point turned out to be 2 °C.
Consider `CC(=O)Nc1ccc(Cl)cc1F` [4'-chloro-2'-fluoroacetanilide], for which the melting point stood at 156 °C.
Under `CCCCS` [1-butanethiol] stands -116 °C; under `CC(C)CCC[C@@H](C)[C@H]1CC[C@H]2[C@@H]3CC=C4C[C@@H](O)CC[C@]4(C)[C@H]3CC[C@]12C` [Cholesterol], 148 °C; under `CC(=O)OC1CC2C(CCC3(C)C(C(C)CCCC(C)C)CCC23)C2(C)CCC(=O)C=C12` (stereo not drawn) [3-oxocholest-4-en-6-yl acetate], 102 °C.
In turn, `O=P(O)(O)O` [orthophosphoric acid] showed a melting point of 20 °C.
Next, `O=[N+]([O-])c1ccc(Cl)c(Cl)c1Cl` [2,3,4-trichloronitrobenzene]: 56 °C and 55.5 °C; `O=C(O)[C@@H](O)[C@H](O)C(=O)O` [D-tartaric acid]: 168 °C; `CCC(O)C(C)(C)C` (stereo not drawn) [2,2-dimethyl-3-pentanol] [listing 1 of 2 here]: 5 °C.
In turn, `C/C=C/C1Nn2c(nnc2-c2cccnc2)S1` (stereo not drawn) registered a melting point of 121 °C.
Molecule `CC1=C(c2ccccc2)c2ccccc2C1=O` [2-methyl-3-phenyl-1H-inden-1-one] showed a melting point of 87 °C.
Next, `O=[N+]([O-])c1ccccc1CCl` [2-nitrobenzyl chloride]: 49 °C.
Under `O=C(O)Cc1ccc(O)c(O)c1` [3,4-dihydroxyphenylacetic acid] stands 129 °C; under `CCNc1ccccc1` [N-ethylaniline], -64 °C.
Next, `Fc1ccc(Br)nc1` [2-bromo-5-fluoropyridine]: 29 °C.
Molecule `NCCNc1ccc([N+](=O)[O-])cn1` [N-(5-nitro-2-pyridyl)-1,2-ethanediamine] registered a melting point of 127 °C.
Next, `CCOc1ccc(N)cc1` [p-phenetidine]: 3 °C.
Under `N#Cc1ccc(Oc2ccnc3ccccc23)cc1C#N` [4-(Quinolin-4-yloxy)phthalonitrile] stands 175 °C; under `CCCCCCCI` [1-iodoheptane], -48 °C.
Under `Cc1cc(/C=C2\S/C(=N\c3ccccc3)N(C3CCCC3)C2=O)c(C)n1-c1ccc(C(F)(F)F)cc1` [OSM-S-54] stands 71.5 °C.
`OC(CCN1CCCCC1)(c1ccccc1)C1CCCCC1` (stereo not drawn) [trihexyphenidyl] registered a melting point of 115 °C.
Next, `COC(=O)[C@@H]1C2CCC(C[C@@H]1OC(=O)c1ccccc1)N2C` (stereo partly drawn) [Cocaine]: 195 °C; `O=[N+]([O-])c1ccc2[nH]ccc2c1` [5-nitroindole]: 141 °C; `CCCCCCCCCCCCCCC` [pentadecane]: 10 °C.
Next, `CCCCC(=O)CCCC` [5-nonanone]: -50 °C; `CN(C)c1ccccc1` [n,n-dimethylaniline]: 3 °C.
Under `Cc1cc(F)ccc1B(O)O` [4-fluoro-2-methylbenzeneboronic acid] stands 200 °C; under `O=C(/C=C/c1ccc(-c2cccc([N+](=O)[O-])c2)o1)c1ccccc1` [(2E)-3-[5-(3-Nitrophenyl)-2-furyl]-1-phenylprop-2-en-1-one], 147 °C; under `CCOC(=O)/C(=N/Nc1ccccc1[N+](=O)[O-])C(C)=O`, 74 °C.
Consider `Fc1ccc(F)c(F)c1F` [1,2,3,4-tetrafluorobenzene], for which the melting point was -42 °C.
Regarding `O=C(O)c1cccnc1` [Niacin], the melting point is 237 °C.
Under `OC[C@@H](O)[C@H](O)[C@H](O)[C@@H](O)CO` [dulcitol] stands 189 °C; under `OCc1c(F)c(F)c(F)c(F)c1F` [2,3,4,5,6-Pentafluorobenzyl Alcohol], 37.5 °C; under `Nc1ccc(C(=O)O)cc1` [p-aminobenzoic acid], 189 °C.
Next, `c1ccc([Si](c2ccccc2)(c2ccccc2)[Si](c2ccccc2)(c2ccccc2)c2ccccc2)cc1` [hexaphenyldisilane]: 369 °C.
Next, `CCC(O)C(C)(C)C` (stereo not drawn) [2,2-dimethyl-3-pentanol] [listing 2 of 2 here]: -5 °C; `Cc1ccn(C(N)=O)n1` [3-methyl-1h-pyrazole-1-carboxamide]: 125 °C.
With `COC(=O)N/C=C/c1ccccc1[N+](=O)[O-]` [methyl [(E)-2-(2-nitrophenyl)ethenyl]carbamate], the melting point worked out at 147 °C.
In the case of `C[C@H]1C[C@H]2[C@@H]3CCC4=CC(=O)C=C[C@]4(C)[C@@]3(F)[C@@H](O)C[C@]2(C)[C@@]1(O)C(=O)CO` [Betamethasone], the melting point was determined as 232 °C.
Take `CC(C)Oc1ccc(Nc2ccccc2)cc1` [4-Isopropoxy-N-phenylaniline]: the melting point was 79 °C.
Under `N#Cc1cccc(I)c1` [3-iodobenzonitrile] stands 40 °C; under `O=C(O)/C(=C/c1ccccc1)c1ccccc1` [(2E)-2,3-Diphenylacrylic acid], 173 °C; under `Nc1ccccc1C(O)(c1ccccc1)c1ccccc1` [(2-aminophenyl)(diphenyl)methanol], 122 °C.
Next, `C#CC(O)(c1ccccc1)c1ccccc1` [1,1-diphenyl-2-propyn-1-ol]: 46 °C; `CN(C)c1ccc(N=C=S)cc1` [4-dimethylaminophenyl isothiocyanate]: 67 °C; `OC1(c2ccc(Cl)cc2)CCNCC1` [4-(4-chlorophenyl)-4-hydroxypiperidine]: 139 °C.
Under `O=c1cc[nH]c(=O)[nH]1` [uracil] stands 330 °C; under `Nc1ccc(CCC(=O)O)cc1` [3-(4-aminophenyl)propionic acid], 134 °C; under `ClC(Cl)=C(Cl)Cl` [tetrachloroethylene], -22 °C.
The molecule `CCC(C)c1cc([N+](=O)[O-])cc([N+](=O)[O-])c1O` (stereo not drawn) [2-sec-Butyl-4,6-dinitrophenol] came in with a melting point of 55 °C.
Under `CSc1ccccc1B(O)O` [2-(methylthio)benzeneboronic acid] stands 160 °C; under `CC(C)CC(C)(C)C` [2,2,4-trimethylpentane], -107 °C; under `COC(=O)c1ccc(Br)cc1` [methyl_4-bromobenzoate], 81 °C.
Under `Clc1ccc(Cl)c(Cl)c1` [1,2,4-Trichlorobenzene] stands 17 °C.
`S=C=Nc1ccc(Cl)c(Cl)c1Cl` [2,3,4-trichlorophenyl isothiocyanate] registered a melting point of 70 °C.
Molecule `O=C(O)c1ccc(Br)cc1` [4-bromobenzoic acid] came in with a melting point of 256 °C.
Under `O=c1cc(-c2ccccc2)oc2cccc(O)c12` [5-hydroxyflavone] stands 158 °C; under `O=C1C=CC(=O)C=C1` [1,4-Benzoquinone], 114 °C.
Next, `CSc1cnccn1` [2-(methylthio)pyrazine]: 44 °C.
Next, `CCOC=O` [ethyl_formate]: -80 °C; `CC(=O)OCC1OC(C#N)=CC(OC(C)=O)C1OC(C)=O` (stereo not drawn): 114 °C.
Turning to `Oc1ccc(Cl)c(Cl)c1` [3,4-dichlorophenol], the melting point worked out at 66 °C.
Next, `CN(C)S(C)(=O)=O` [N,N-dimethylmethanesulfonamide]: 48 °C; `COC(=O)c1ccc(O)cc1` [Methyl 4-hydroxybenzoate]: 127 °C.
Under `Cc1cc(F)ccc1O` [4-fluoro-2-methylphenol] stands 34 °C.
Under `O=Cc1ccc(CO)o1` [5-hydroxymethyl-2-furaldehyde] stands 34 °C; under `C[Si](C)(C)Br` [bromotrimethylsilane], -44 °C.
`Nc1cc(Cl)ccc1Cl` [2,5-dichloroaniline] had a melting point of 50 °C.
